Reference: US9938328B2, “Use of PEDF-derived polypeptides for treating alopecia and/or hair depigmentation” (MacKay Memorial Hospital, priority 2012, dated 2018)
Entries after “also recorded” stand apart in the source; their conditions may differ. Where two headings read alike, the source gives them in different places.

Legend:
[1] = system: C57BL/6 mice; experiment: Hair regrowth in DHT-injected depilated mice, topical peptide gel for 14 days; assay type: in vivo, mouse; settings: for Numbers of Hair Bulbs/mm deep subcutis / Hair Growth Score: DHT 30 mg/kg s.c. twice per week, gel 25 μM once per day for 14 days; for hair regrowth after depilation (FIG. 7, in words) / increase in total number of hair bulbs versus vehicle or 18-mer: DHT-injected mice; for hair regrowth after depilation (FIG. 7, in words): daily application, day-18 post-depilation; for Hair Growth Score: scale 0 (0%) to 5 (80-100% of shaved area dark)
Description: (§1) Before use, the stock containing the 44-mer was prepared into a working dilution, which is then mixed with an antibiotic ointment containing 5 mg/g neomycin sulfate and 12.5 mg/g bacitracin to obtain an antibiotic ointment containing 25 μM of 44-mer. As to other PEDF peptides, 5 μl of 5 mM PEDF peptide stock was gradually dissolved in ethyl alcohol (30% w/w in distilled water), and then 1-oleoyl-rac-glycerol (1% w/w, a skin penetration enhancer) and light mineral oil (1% w/w) were gradually added. The solution was finally gelled by adding hydroxypropyl methylcellulose (5% w/w) to a final volume of 1 ml. A DMSO vehicle corresponding to the peptide formulation was prepared for the purpose of in vivo comparison. FITC-29-mer was also dissolved in the same formulation for applied on top of skin to determining the follicular distribution of FITC-29-mer.
(§2) For topical treatments, 350 mg ointment or gel containing 25 μM of PEDF peptide was spread gently over dorsal skin per mouse.
To evaluate the effect of PEDF peptide on restarting hair growth, C57BL/6 mice were depilated as described in Example 3.2. At day-11 post-depilation, mice (six to ten mice per experimental condition) were injected subcutaneously (30 mg/kg body weight) in the shaved dorsal area with DHT solution (1.5 mg of DHT mixed within 200 μl of olive oil), and then the mice were injected with DHT twice per week during the course of the study. After the first DHT injection, 350 mg vehicle gel or gel containing 25 μM PEDF peptide (29-mer, 24-mer, 20-mer, or 18-mer) was topically applied to the back skin of mice once per day for 14 days. Changes in hair coat were recorded by photographing with a digital camera (FIG. 7), and the percentage of the shaved area that became dark (re-grown hair) was measured. The scores of hair regrowth after DHT injection was evaluated using the following scale: 0, 0% (no hair growth); 1, <20%; 2, 20-39%; 3, 40-59%; 4, 60-79%; 5, 80-100%. Numbers of hair bulbs per unit length (1 mm) of deep subcutis were counted as described above.

[2] = system: male C57BL/6 mice; experiment: DHT-induced catagen development in depilated mice, topical peptide gel (histomorphometry, TUNEL, BrdU); assay type: in vivo, mouse; settings: day-15 post-depilation; for hair cycle phase of hair follicles (histology, in words): 4 days after the DHT injection; for BrdU Labeling Index (%) in HB: hair bulb; for Phase (%) Anagen-Catagen I / Phase (%) Catagen II-III / Phase (%) Catagen IV-V / Phase (%) Catagen VI-VIII: percentage of hair follicles
Description: as §1, §2
The murine back skin was harvested parallel to the vertebral line to obtain longitudinal sections through the hair follicles. Dorsal skin was fixed in 4% paraformaldehyde and embedded in paraffin blocks to obtain longitudinal section. Tissues were sliced into 5 μm sections. Before use, fixed samples were de-paraffinized in xylene and rehydrated in a graded series of ethanol. General histology was performed using H&E dye. Digital photomicrographs (Zeiss epifluorescence microscope; Jena, Germany) were taken from representative areas at a fixed magnification of 100×.
For analysis of HF morphogenesis, animals were euthanized at day 15 post-depilation. The percentage of hair follicles in different stages of morphogenesis was assessed on the accepted basis of murine HF morphological criteria as described by Müuller-Röver et al. (Journal of Investigative Dermatology (2001) 117, 3-15). At least 24 longitudinally cut HF sections obtained from six to ten DHT-treated animals, were analyzed.
(§3) The vibrissae follicle cryosections were washed three times in PBS. Formalin-fixed, paraffin-embedded skin specimens were deparaffinized in xylene and rehydrated in a graded series of ethanol. Sections were then stained with TdT-mediated dUTP nick-end labeling (TUNEL)-based kit (Roche Molecular Biochemicals, Indianapolis, Ind.) following the manufacturer's instructions. The cell number was monitored by counterstaining with Hoechst 33258 (blue). The nuclei were calculated in ten randomly selected fields of the three different chambers by a Zeiss epifluorescence microscope (400×, 10 fields/sample). Pictures were recorded on Zeiss software.
(§4) For animal study, BrdU was reconstituted in DMSO as stock (80 mM). 10 μl of BrdU mixed with 90 μl of PBS was intraperitoneally injected into mouse at 16 hours prior to euthanasia. Formalin-fixed, paraffin-embedded skin specimens were deparaffinized in xylene and rehydrated in a graded series of ethanol before performing immunohistochemistry. The vibrissae follicle cryosections were washed three times in PBS and then exposed to 1 N HCl at room temperature for 1 hour for subsequent immunohistochemistry.
For in vivo analysis, a 5α-dihydrotestosterone (DHT) animal model was employed. Six-week-old male C57BL/6 mice (weighing 15-20 g) in the telogen stage of the hair cycle were depilated using a melted wax/rosin mixture (1:1) under general anesthesia, and the anagen stage was induced. DHT was dissolved in DMSO to give a 50 mg/ml stock solution. On day-11 post-depilation, mice (six to ten mice per experimental condition) were injected subcutaneously in the shaved dorsal area with DHT solution (30 mg/kg body weight; 1.5 mg of DHT mixed within 200 μl of olive oil per mouse). After the DHT injection, 350 mg vehicle gel or gel containing 25 μM of PEDF peptide (29-mer, 24-mer, 20-mer, or 18-mer) was topically applied to the back skin of mice once per day for 3 days. […]

[3] = system: male mouse vibrissal hair follicles; experiment: Organ culture of mouse vibrissal hair follicles challenged with DHT (TUNEL, BrdU, histology); assay type: cell-based; settings: for BrdU Labeling Index (%) / TUNNEL Labeling Index (%): peptide for 16 hours, then 100 nM DHT for further 48 hours, hair matrix keratinocytes; for TUNEL-positive keratinocytes versus vehicle or 18-mer (in words): vibrissae with 100 nM DHT
Description: as §3
(§5) After fixing with 4% paraformaldehyde, cells were exposed to cold methanol for 2 minutes, and then treated with 1 N HCl at room temperature for 1 hour before performing immunofluorescence. BrdU-labeled DNA was detected by polyclonal anti-BrdU antibody and rhodamine-conjugated donkey anti-rabbit IgG.
as §4
Mouse vibrissae follicles were cultured as follows. Briefly, whisker pads were cut off from the face of mouse and transferred to a Petri dish containing PBS and 1% antibiotic mixture. Each vibrissae follicle that was in anagen was isolated from the whisker pads and cultured in DMEM supplemented with insulin (10 μg/ml), hydrocortisone (10 ng/ml, Sigma-Aldrich), 1% penicillin/streptomycin antibiotic mixture and L-glutamine (2 mM), using 24-well culture plates (3 vibrissae follicles per well) and incubated at 37° C., in 5% CO2. Ten to fifteen HFs were studied in each experimental group, and were repeated three times. DHT and PEDF peptide dissolved in DMSO were added to the HF culture supplemented with insulin and hydrocortisone (the final concentration of DMSO was less than 0.05%).
Each PEDF peptide (29-mer, 24-mer, 20-mer, or Mo 20-mer) was added to organ culture of male mouse vibrissal hair follicles (HFs) for 16 hours, and then 100 nM DHT was added for further 48 hours.
Immunodetections of TUNEL- and BrdU-positive cells in cryosections were used for assessing apoptosis and proliferation activity in the HF epithelium, respectively. The labeling index (%) of TUNEL- and BrdU-positive cells was computed as the number of labeled cells divided by the total number of cells with nuclei.

[4] = system: human epidermal keratinocytes (HaCaT); experiment: BrdU incorporation in HaCaT keratinocytes in response to TGF-β1 and PEDF-derived peptide; assay type: cell-based
Description: as §5
An immortalized human keratinocyte cell line (HaCaT) was cultured at 37° C. in 10% FBS-DMEM. Treatments with PEDF peptide and recombinant human TGFβ1 (R&D Systems) were performed on cells seeded in 5% FBS-DMEM.
It is known that DHT would induce the expression of transforming growth factor-β1 (TGF-β1) in dermal papilla cells (DPCs), and TGF-β1 is a catagen inducer that suppresses hair growth and follicular keratinocyte growth in subjects with androgenic alopecia. To further confirm that PEDF-derived peptide is able to protect keratinocytes from DHT-mediated growth suppression, the cell division of human epidermal keratinocytes (HaCaT) in response to TGF-β1 and PEDF-derived peptide were assessed by BrdU incorporation. The labeling index (%) of BrdU-positive cells was computed as the number of labeled cells divided by the total number of cells with nuclei.
However, in the TGF-β1+20-mer treatment group, TGF-β1 was unable to suppress the proliferative activity of HaCaT, when cells were pretreated with 20-mer for 16 hours.

[5] = DHT 30 mg/kg s.c., gel 25 μM once per day for 3 days

Substance | Numbers of Hair Bulbs/mm deep subcutis [1] | hair regrowth after depilation (FIG. 7, in words) [1] | Hair Growth Score [1] | hair cycle phase of hair follicles (histology, in words) [2] | TUNNEL-positive cell/HF in HM and ORS [2, 5] | BrdU Labeling Index (%) in HB [2, 5] | Phase (%) Anagen-Catagen I [2, 5] | Phase (%) Catagen II-III [2, 5] | Phase (%) Catagen IV-V [2, 5] | Phase (%) Catagen VI-VIII [2, 5] | BrdU Labeling Index (%) [3] | TUNNEL Labeling Index (%) [3] | TUNEL-positive keratinocytes versus vehicle or 18-mer (in words) [3] | BrdU Labeling Index (%) [4] | BrdU Labeling Index (%) ([4]; TGF-β1 + 20-mer: pretreated with 20-mer for 16 hours, then TGF-β1 4 ng/ml, 24 hours) | increase in total number of hair bulbs versus vehicle or 18-mer [1] | hair matrix histology (H&E, FIG. 5) ([3]; peptide pretreatment, then 100 nM DHT)
EQRTESIIHRALYYDLIS [18-mer, 18-mer peptide without the SLGA residues] | 4.8 ± 0.86 /mm | remarkable retardation of hair regrowth | 1.88 ± 0.40 | entered catagen; also recorded: in the middle and late catagen phase | 7.6 ± 1.5 cell/HF | 25.6 ± 2.52% | 9.7 ± 1.8% | 13.85 ± 1.75% | 53.05 ± 0.85% | 23.4 ± 4.4% | 8.4 ± 1.21% | 26.2 ± 4.21% | – | – | – | – | –
SLGAEHRTESVIHRALYYDL [Mo 20-mer, synthetic peptide derived from mouse PEDF] | – | – | – | – | – | – | – | – | – | – | 24.6 ± 2.56 % | 7.3 ± 1.75 % | much less TUNEL-positive keratinocytes | – | – | – | –
SLGAEQRTESIIHRALYYDL [20-mer, corresponds to residues 93-112 of human PEDF] | 6.8 ± 1.24 /mm | amelioration of the retardation of hair regrowth | 4.25 ± 0.25 | mostly in the anagen phase; also recorded: significantly higher percentage of hair follicles was found in the anagen phase, and the early catagen phase | – | 45.2 ± 2.47 % | 39.0 ± 2.8 % | 33.95 ± 1.25% | 23.6 ± 1.8% | 3.45 ± 0.25 % | 23.6 ± 4.56 % | 6.8 ± 1.68 % | much less TUNEL-positive keratinocytes | 23.3 ± 2.46% | 32.3 ± 3.70 % | 1.6 fold | regularly aligned keratinocytes and much less abnormal melanin particles
SLGAEQRTESIIHRALYYDLISSP [24-mer, corresponds to residues 93-116 of human PEDF] | 7.2 ± 1.07 /mm | amelioration of the retardation of hair regrowth | 4.13 ± 0.40 | significantly higher percentage of hair follicles was found in the anagen phase, and the early catagen phase | – | 46.9 ± 2.57 % | – | – | – | – | 22.0 ± 3.69 % | 6.5 ± 2.43 % | much less TUNEL-positive keratinocytes | – | – | 1.6 fold | –
SLGAEQRTESIIHRALYYDLISSPDIHGT [29-mer, corresponds to residues 93-121 of human PEDF] | 7.4 ± 1.03 /mm | amelioration of the retardation of hair regrowth | 3.75 ± 0.37 | mostly in the anagen phase; also recorded: significantly higher percentage of hair follicles was found in the anagen phase, and the early catagen phase | – | 44.89 ± 2.95 % | 39.85 ± 1.35 % | 37.8 ± 1.3% | 19.15 ± 2.05% | 3.2 ± 0.6 % | 22.6 ± 2.42 % | 5.8 ± 2.12 % | much less TUNEL-positive keratinocytes | – | – | 1.6 fold | –
transforming growth factor-β1 [TGF-β1, reference compound] | – | – | – | – | – | – | – | – | – | – | – | – | – | 9.9 ± 2.23 % | – | – | –
